Measured values from doi:10.1101/2020.03.08.982454v1 (biorxiv, 2020).

Tests used:
KMP-11 [1] = target: T1, KMP-11 (Leishmania donovani, UniProt Q36736); assay: DiI C-18 fluorescence quenching, Hill fit; assay type: binding
T1 sequence (Q36736 1-92): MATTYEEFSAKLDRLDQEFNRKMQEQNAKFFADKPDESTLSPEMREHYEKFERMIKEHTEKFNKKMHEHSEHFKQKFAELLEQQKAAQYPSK

KMP-11 [2] = target: KMP-11 (Leishmania donovani, UniProt Q36736, Y89W); assay: biochemical
KMP-11 [3] = target: KMP-11 (Leishmania donovani, UniProt Q36736, Y48W); assay: biochemical
KMP-11 [4] = target: KMP-11 (Leishmania donovani, UniProt Q36736, F62W); assay: biochemical
KMP-11 [5] = target: KMP-11 (Leishmania donovani, UniProt Q36736, Y5W); assay: biochemical

## CCCCCCCCCCCCCCCC(=O)OC[C@H](COP(=O)([O-])OCC[N+](C)(C)C)OC(=O)CCCCCCCCCCCCCCC [DPPC]
KMP-11 [1]
  Kd: 0.286 µM
KMP-11 [2]
  Kd: 0.161 µM
KMP-11 [3]
  Kd: 0.118 µM
KMP-11 [4]
  Kd: 3.8 µM
KMP-11 [5]
  Kd: 0.0194 µM
